# In paper PMC12222587, “A2B adenosine receptor-triggered intracellular calcium mobilization: Cell type-dependent involvement of Gi, Gq, Gs proteins and protein kinase C” (Purinergic Signalling, 2025):
# “Also recorded” adds a separate entry of the source. *1 amine or outer side, *2 acyl side, *3 side chain or, on linkers, in order; H or OH if unused. Where a SMILES comes first, the peptide text is derived from it. Bridges are numbered along the chain shown (N, C = ends). [ ]: non-standard residue; d: D form. X2 = CC(=O)NC(C(=O)OC(C(C)C)C(N[*:1])C(=O)[*:2])C(O)C(C)C; PhLac = O=C(O)[CH](O)Cc1ccccc1; NMeT = CN[CH](C(=O)O)[CH](C)O; NMeA = CN[CH](C)C(=O)O; NMeDha = C=C(NC)C(=O)O
# Columns and labels:
# [1] = tested on: endogenous adenosine receptors; test: cAMP accumulation, MDA-MB-231 cells expressing endogenous adenosine receptors; assay type: cell-based, human
# Method: (§1) HEK293, T24 bladder cancer and MDA-MB-231 breast cell lines were cultured in DMEM medium containing 10% fetal bovine serum, 100 units/ml penicillin, 100 μg/ml streptomycin, and 2 μmol/ml glutamine. For the assay of 3′,5′-cyclic adenosine monophosphate (cAMP), cells were plated in 96-well (4 × 10^4 cells/well) clear plates in 100 μl of medium overnight. Cell culture medium was then replaced with 80 µl HBSS buffer containing 20 mM HEPES, phosphodiesterase inhibitor rolipram (10 μM), and 3 units/ml adenosine deaminase (Worthington Biochemical, Lakewood, NJ, USA) for 30 min followed by agonist addition to the mixture, which was then incubated for 20 min. The treatment of YM or FR was 20 min before agonist addition.
# P2Y1R [2] = target: T1, P2Y1R (Homo sapiens, UniProt P47900); test: Intracellular calcium mobilization, HEK293 cells, native P2Y1R (MRS2365); assay type: cell-based
# A1AR [3] = target: T2, A1AR (Homo sapiens, UniProt P30542); test: Intracellular calcium mobilization, HEK293 cells expressing recombinant A1AR (CCPA); assay type: cell-based
# T2 construct: expressed in transfected cells
# T2 sequence (P30542 1-326): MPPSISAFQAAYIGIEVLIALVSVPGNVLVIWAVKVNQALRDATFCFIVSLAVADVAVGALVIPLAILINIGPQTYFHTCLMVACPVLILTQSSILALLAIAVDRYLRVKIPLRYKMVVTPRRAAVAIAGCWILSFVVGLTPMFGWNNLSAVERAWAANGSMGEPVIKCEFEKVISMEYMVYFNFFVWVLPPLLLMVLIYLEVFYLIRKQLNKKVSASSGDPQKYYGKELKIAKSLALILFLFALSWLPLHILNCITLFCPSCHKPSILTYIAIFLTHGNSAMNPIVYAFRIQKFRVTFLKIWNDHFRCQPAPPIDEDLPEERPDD
# LPA receptor = test: Intracellular calcium mobilization, HEK293 cells, endogenous LPA receptor; assay type: cell-based, human; conditions: YM 300 nM
# A1AR [4] = test: Calcium increase, CHO cells expressing recombinant A1AR (CCPA); assay type: cell-based; conditions: recombinant A1 receptor, CCPA 1 µM, read-out: IC50 in inhibiting the effect of CCPA (Ca2+ increase)
# M2 muscarinic receptor = test: Calcium increase, CHO cells expressing recombinant M2 muscarinic receptor (carbachol); assay type: cell-based; conditions: carbachol 10 µM, read-out: IC50 in inhibiting the effect of carbachol (Ca2+ increase)
# A1AR [5] = target: T2, A1AR; test: cAMP accumulation, HEK293 cells, A1AR-mediated inhibition of forskolin-stimulated cAMP (CCPA); assay type: cell-based
# Method: as §1
# A2AAR = target: T3, A2AAR (Homo sapiens, UniProt P29274); test: cAMP accumulation, HEK293 cells, A2AAR-mediated stimulation (CGS21680); assay type: cell-based
# T3 construct: host or cells: HEK293
# Method: as §1
# A2BAR = target: T4, A2BAR (Homo sapiens, UniProt P29275); test: Intracellular calcium mobilization, T24 bladder cancer cells, native A2BAR (NECA); assay type: cell-based; conditions: T24 cells; for Effect on native A2BAR (NECA)-triggered calcium mobilization: YM 300 nM, FR 300 nM, PTX 200 ng/ml, CTX 500 ng/ml overnight, other inhibitors 20 min before NECA
# T4 sequence (P29275 1-332): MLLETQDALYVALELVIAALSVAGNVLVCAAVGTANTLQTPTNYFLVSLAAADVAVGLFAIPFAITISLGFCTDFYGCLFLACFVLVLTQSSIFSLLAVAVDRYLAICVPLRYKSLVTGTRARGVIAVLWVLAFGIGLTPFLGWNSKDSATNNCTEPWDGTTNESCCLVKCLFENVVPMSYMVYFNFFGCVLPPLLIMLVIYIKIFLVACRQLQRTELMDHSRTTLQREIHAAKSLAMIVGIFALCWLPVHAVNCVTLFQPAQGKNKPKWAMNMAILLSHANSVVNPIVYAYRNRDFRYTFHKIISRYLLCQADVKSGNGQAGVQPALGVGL
# P2Y1R [6] = target: T1, P2Y1R; test: Intracellular calcium mobilization, T24 bladder cancer cells, native P2Y1R (MRS2365); assay type: cell-based; conditions: for Effect on native P2Y1R (MRS2365)-triggered calcium mobilization: YM 300 nM, FR 300 nM, PTX 200 ng/ml overnight
# β2-adrenergic receptor = β2-adrenergic receptor (Homo sapiens, UniProt P07550); test: Intracellular calcium mobilization, T24 bladder cancer cells, endogenous β2-adrenergic receptor; assay type: cell-based; conditions: T24 cells, YM 1 µM
# P2Y1R [7] = conditions: 1321N1 astrocytoma (P2Y1-overexpressing); ref Gao and Jacobson, 2017 [29]; cited from earlier work
# [8] = GO 20 min, then PMA 20 min before agonist
# T1 sequence (P47900 whole entry): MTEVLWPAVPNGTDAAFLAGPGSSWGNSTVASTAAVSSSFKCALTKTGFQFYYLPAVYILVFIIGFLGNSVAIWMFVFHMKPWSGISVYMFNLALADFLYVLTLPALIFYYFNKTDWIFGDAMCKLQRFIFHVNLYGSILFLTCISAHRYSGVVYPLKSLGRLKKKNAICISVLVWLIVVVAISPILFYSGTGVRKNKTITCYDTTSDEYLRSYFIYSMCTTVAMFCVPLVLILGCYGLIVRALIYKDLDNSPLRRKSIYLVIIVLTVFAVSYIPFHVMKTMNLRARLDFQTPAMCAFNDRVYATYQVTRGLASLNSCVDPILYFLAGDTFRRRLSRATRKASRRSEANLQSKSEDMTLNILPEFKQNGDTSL
# β2-adrenergic receptor, sequence (P07550 whole entry): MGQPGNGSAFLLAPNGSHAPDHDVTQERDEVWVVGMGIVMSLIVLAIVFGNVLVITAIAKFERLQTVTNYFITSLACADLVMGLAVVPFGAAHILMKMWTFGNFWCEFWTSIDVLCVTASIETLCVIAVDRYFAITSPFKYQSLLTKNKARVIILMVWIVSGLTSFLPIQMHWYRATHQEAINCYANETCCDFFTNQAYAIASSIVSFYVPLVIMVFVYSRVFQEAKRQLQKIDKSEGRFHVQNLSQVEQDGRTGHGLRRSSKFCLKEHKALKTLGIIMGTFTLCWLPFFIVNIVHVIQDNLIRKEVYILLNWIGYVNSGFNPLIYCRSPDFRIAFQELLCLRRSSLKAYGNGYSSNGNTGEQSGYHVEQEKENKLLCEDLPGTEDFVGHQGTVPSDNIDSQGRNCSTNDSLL
# T3 sequence (P29274 whole entry): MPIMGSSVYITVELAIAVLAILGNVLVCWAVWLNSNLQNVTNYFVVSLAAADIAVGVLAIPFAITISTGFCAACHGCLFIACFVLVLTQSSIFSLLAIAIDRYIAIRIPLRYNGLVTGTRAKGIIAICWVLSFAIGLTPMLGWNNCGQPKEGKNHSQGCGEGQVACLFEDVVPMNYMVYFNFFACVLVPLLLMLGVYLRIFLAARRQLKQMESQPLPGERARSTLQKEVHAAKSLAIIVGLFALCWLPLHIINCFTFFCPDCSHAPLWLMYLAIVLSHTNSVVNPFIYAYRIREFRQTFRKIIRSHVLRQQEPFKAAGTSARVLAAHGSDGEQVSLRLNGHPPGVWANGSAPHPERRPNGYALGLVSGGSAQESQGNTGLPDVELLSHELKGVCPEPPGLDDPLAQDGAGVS
smiles,measurement,setting,value
CCNC(=O)[C@H]1O[C@@H](n2cnc3c(N)nc(NCCc4ccc(CCC(=O)O)cc4)nc32)[C@H](O)[C@@H]1O [CGS21680],EC50,[1],2240 ± 850 nM
"CCNC(=O)[C@H]1O[C@@H](n2cnc3c(N)ncnc32)[C@H](O)[C@@H]1O [NECA, adenosine-5′-N-ethyluronamide]",EC50,[1],73.1 ± 18.2 nM
"C=C1C(=O)NC(C)C(=O)N(C)C(C)C(=O)NC(C(OC(=O)C(NC(C)=O)C(O)C(C)C)C(C)C)C(=O)N(C)C(C(C)OC)C(=O)OC(C)C(NC(C)=O)C(=O)OC(Cc2ccccc2)C(=O)N1C (centres unmarked) [YM, YM254890] (Ac-T[PhLac][NMeDha]A[NMeA][X2][NMeT](Me); ester 1-C; configuration not given here)",Effect on P2Y1R (MRS2365)-mediated calcium mobilization,"P2Y1R [2]; Gq/11 siRNA 250 nM, PTX 200 ng/ml overnight, FR, YM 20 min before agonist",inhibited; also recorded: fully sensitive
same,IC50,"P2Y1R [2]; agonist MRS2365 1 µM, read-out: IC50 to inhibit P2Y1R-mediated calcium mobilization",12.8 ± 4.1 nM
same,Effect on A1AR (CCPA)-mediated calcium mobilization,"A1AR [3]; HEK293 cells overexpressing A1AR, Gq/11 siRNA 250 nM, PTX 200 ng/ml overnight, FR, YM 20 min before agonist",inhibited; also recorded: YM and FR – fully sensitive (2)
same,IC50,"A1AR [3]; HEK293 cells, overexpressed A1AR, agonist CCPA 1 µM, read-out: IC50 for inhibition of A1AR-mediated calcium mobilization",12.9 ± 2.52 nM
same,Effect on LPA-induced intracellular calcium mobilization,LPA receptor,completely inhibited
same,IC50,A1AR [4],11.6 nM
same,IC50,M2 muscarinic receptor,9.53 nM
same,Effect on A1AR-mediated inhibition of cAMP accumulation,A1AR [5],did not affect
same,Effect on A2AAR-mediated stimulation of cAMP accumulation,A2AAR,did not affect
same,Effect on native A2BAR (NECA)-triggered calcium mobilization,A2BAR,little if any effect; also recorded: FR and YM insensitive (4); Gαq/11 siRNA insensitive (4)
same,Effect on native P2Y1R (MRS2365)-triggered calcium mobilization,P2Y1R [6],completely inhibited; also recorded: YM – fully sensitive (4)
same,Effect on formoterol-induced calcium mobilization (β2-adrenergic receptor),"β2-adrenergic receptor; FR 300 nM, PTX 200 ng/ml, CTX 500 ng/ml, PMA 1 µM",YM – partially sensitive (6)
same,"Inhibition of the maximum effect (Emax) of formoterol, calcium mobilization",β2-adrenergic receptor,78%
same,Sensitivity of P2Y1R calcium mobilization to modulator,P2Y1R [7],YM sensitive
COc1ccc2c(c1)CC[C@@H]1[C@@H]2CC[C@]2(C)[C@@H](NCCCCCCN3C(=O)C=CC3=O)CC[C@@H]12 [U73122],Effect on native A2BAR (NECA)-triggered calcium mobilization,A2BAR,completely inhibited
COc1ccc2c(c1)c(C1=C(c3c[nH]c4ccccc34)C(=O)NC1=O)cn2CCCN(C)C [GO],Effect of pretreatment on the PMA effect at A2BAR-triggered Ca2+ increase,A2BAR; [8],eliminated the effect of PMA
same,Effect of pretreatment on the PMA effect at P2Y1R-triggered Ca2+ increase,P2Y1R [6]; [8],eliminated the effect of PMA
same,Effect on native P2Y1R (MRS2365)-triggered calcium mobilization,P2Y1R [6],significantly enhanced
